Assay results: ChEMBL document CHEMBL4177696, “Identification of a diverse synthetic abietane diterpenoid library and insight into the structure-activity relationships for antibacterial activity” (Bioorg Med Chem Lett, 2017)
Converted amounts (≈) assume the structure as drawn.

Key:
Type in all cases: functional
Staphylococcus aureus = assay: Antibacterial activity against Staphylococcus aureus measured after 24 hrs
Bacillus subtilis = assay: Antibacterial activity against Bacillus subtilis measured after 24 hrs
Escherichia coli = assay: Antibacterial activity against Escherichia coli measured after 24 hrs
Pseudomonas fluorescens = assay: Antibacterial activity against Pseudomonas fluorescens measured after 24 hrs

| SMILES | MIC (Staphylococcus aureus) [µg/mL] | MIC (Bacillus subtilis) [µg/mL] | MIC (Escherichia coli) [µg/mL] | MIC (Pseudomonas fluorescens) [µg/mL] |
| --- | --- | --- | --- | --- |
| COC(=O)[C@]1(C)CCC[C@]2(C)c3ccc(C(C)C)c(NC(=O)Cn4cc(CNC(=O)OC(C)(C)C)nn4)c3CC[C@@H]12 | 75 (≈ 132 µM) | 50 (≈ 88.1 µM) | 100 (≈ 176 µM) | 25 (≈ 44 µM) |
| COC(=O)[C@]1(C)CCC[C@]2(C)c3ccc(C(C)C)c(NC(=O)Cn4cc(-c5ccc(C#N)cc5)nn4)c3CC[C@@H]12 | 25 (≈ 46.3 µM) | 12.5 (≈ 23.2 µM) | 12.5 (≈ 23.2 µM) | 25 (≈ 46.3 µM) |
| COC(=O)[C@]1(C)CCC[C@]2(C)c3ccc(C(C)C)c(NC(=O)Cn4cc(-c5cccc(F)c5)nn4)c3CC[C@@H]12 | 12.5 (≈ 23.5 µM) | 6.3 (≈ 11.8 µM) | 25 (≈ 46.9 µM) | 12.5 (≈ 23.5 µM) |
| COC(=O)[C@]1(C)CCC[C@]2(C)c3ccc(C(C)C)c(NC(=O)Cn4cc(-c5ccc(C(F)(F)F)cc5)nn4)c3CC[C@@H]12 | 25 (≈ 42.9 µM) | 12.5 (≈ 21.5 µM) | 12.5 (≈ 21.5 µM) | 25 (≈ 42.9 µM) |
| COC(=O)C1=C[C@@H]2CCc3c(ccc(C(C)C)c3OC)[C@@]2(C)CC1 | 50 (≈ 152 µM) | 25 (≈ 76.1 µM) | 75 (≈ 228 µM) | 25 (≈ 76.1 µM) |
| CC(C)(C)[Si](C)(C)O[C@@H]1CC[C@]2(C)c3ccccc3CC[C@H]2[C@H]1CO | 100 (≈ 277 µM) | 75 (≈ 208 µM) | 100 (≈ 277 µM) | 75 (≈ 208 µM) |
| COc1c(C(C)C)ccc2c1CC[C@H]1[C@@H]3COC(=O)[C@]3(O)CC[C@]21C | 100 (≈ 290 µM) | 100 (≈ 290 µM) | 50 (≈ 145 µM) | 100 (≈ 290 µM) |
| COc1c(C(C)C)ccc2c1CC[C@H]1C(=O)CCC[C@]21C | 75 (≈ 262 µM) | 100 (≈ 349 µM) | 75 (≈ 262 µM) | 100 (≈ 349 µM) |
| COC(=O)[C@]1(C)CCC[C@]2(C)c3ccc(C(C)C)c(NC(=O)Cn4cc(-c5ccccc5OC)nn4)c3CC[C@@H]12 | 75 (≈ 138 µM) | 50 (≈ 91.8 µM) | 75 (≈ 138 µM) | 25 (≈ 45.9 µM) |
| COC(=O)[C@]1(C)CCC[C@]2(C)c3ccc(C(C)C)cc3CC[C@@H]12 [METHYL DEHYDROABIETATE] | 75 (≈ 238 µM) | 100 (≈ 318 µM) | 100 (≈ 318 µM) | 100 (≈ 318 µM) |
| COc1c(C(C)C)ccc2c1CC[C@H]1[C@@H](O)CCC[C@]21CO[N+](=O)[O-] | 100 (≈ 286 µM) | 75 (≈ 215 µM) | 100 (≈ 286 µM) | 25 (≈ 71.5 µM) |
| COc1c(C(C)C)ccc2c1CC[C@H]1c3cocc3CC[C@]21C | 50 (≈ 161 µM) | 100 (≈ 322 µM) | 100 (≈ 322 µM) | 100 (≈ 322 µM) |
| COC(=O)[C@]1(C)CCC[C@]2(C)c3ccc(C(C)C)c(NC(=O)Cn4cc(-c5ccc(F)cc5)nn4)c3CC[C@@H]12 | 50 (≈ 93.9 µM) | 25 (≈ 46.9 µM) | 50 (≈ 93.9 µM) | 50 (≈ 93.9 µM) |
| NCC[C@H](O)C(=O)N[C@@H]1C[C@H](N)[C@@H](O[C@H]2O[C@H](CN)[C@@H](O)[C@H](O)[C@H]2O)[C@H](O)[C@H]1O[C@H]1O[C@H](CO)[C@@H](O)[C@H](N)[C@H]1O.O=S(=O)(O)O.O=S(=O)(O)O [AMIKACIN SULFATE] | 0.8 | 0.8 | 1.6 | 0.8 |
| COC(=O)[C@]1(C)CCC[C@]2(C)c3ccc(C(C)C)c(NC(=O)Cn4cc(-c5cc(Cl)cc(Cl)c5)nn4)c3CC[C@@H]12 | 25 (≈ 42.8 µM) | 25 (≈ 42.8 µM) | 25 (≈ 42.8 µM) | 50 (≈ 85.7 µM) |
| COC(=O)[C@]1(C)CCC[C@]2(C)c3ccc(C(C)C)c(OC)c3CC[C@@H]12 | 75 (≈ 218 µM) | 75 (≈ 218 µM) | 100 (≈ 290 µM) | 75 (≈ 218 µM) |
| C=C1C(=O)CC[C@]2(C)c3ccc(C(C)C)c(OC)c3CC[C@@H]12 | 25 (≈ 83.8 µM) | 12.5 (≈ 41.9 µM) | 6.3 (≈ 21.1 µM) | 25 (≈ 83.8 µM) |
| COC(=O)[C@]1(C)CCC[C@]2(C)c3ccc(C(C)C)c(NC(=O)Cn4cc(-c5cccc(Cl)c5)nn4)c3CC[C@@H]12 | 50 (≈ 91.1 µM) | 12.5 (≈ 22.8 µM) | 12.5 (≈ 22.8 µM) | 25 (≈ 45.5 µM) |
| COC(=O)[C@]1(C)CCC[C@]2(C)c3ccc(C(C)C)c(NC(=O)Cn4cc(-c5ccc(-c6ccccc6)cc5)nn4)c3CC[C@@H]12 | 50 (≈ 84.6 µM) | 75 (≈ 127 µM) | 25 (≈ 42.3 µM) | 50 (≈ 84.6 µM) |
| COC(=O)[C@]1(C)CCC[C@]2(C)c3ccc(C(C)C)c(NC(=O)Cn4cc(-c5ccc(OC(F)(F)F)cc5)nn4)c3CC[C@@H]12 | 25 (≈ 41.8 µM) | 50 (≈ 83.5 µM) | 50 (≈ 83.5 µM) | 75 (≈ 125 µM) |
| COc1c(C(C)C)ccc2c1CC[C@H]1[C@@H](CO)[C@H](O)CC[C@]21C | 75 (≈ 236 µM) | 100 (≈ 314 µM) | 75 (≈ 236 µM) | 50 (≈ 157 µM) |
| C[C@]12CC=C3C(=O)OC[C@@H]3[C@@H]1CCc1ccccc12 | 50 (≈ 197 µM) | 25 (≈ 98.3 µM) | 0.8 (≈ 3.15 µM) | 1.6 (≈ 6.29 µM) |
| COC(=O)[C@]1(C)CCC[C@]2(C)c3ccc(C(C)C)c(NC(=O)Cn4cc(-c5ccccc5F)nn4)c3CC[C@@H]12 | 25 (≈ 46.9 µM) | 50 (≈ 93.9 µM) | 25 (≈ 46.9 µM) | 12.5 (≈ 23.5 µM) |
| COC(=O)[C@]1(C)CCC[C@]2(C)c3ccc(C(C)C)c(NC(=O)Cn4cc(C(O)c5ccccc5)nn4)c3CC[C@@H]12 (some centres not stated) | 25 (≈ 45.9 µM) | 75 (≈ 138 µM) | 50 (≈ 91.8 µM) | 75 (≈ 138 µM) |

| SMILES | MIC (Staphylococcus aureus) [µg/mL] | MIC (Bacillus subtilis) [µg/mL] | MIC (Escherichia coli) [µg/mL] | MIC (Pseudomonas fluorescens) [µg/mL] |
| --- | --- | --- | --- | --- |
| CC(C)C1=CC2=CC[C@@H]3[C@](C)(CCC[C@@]3(C)C(=O)O)[C@H]2CC1 [ABIETIC ACID] | 25 (≈ 82.7 µM) | 50 (≈ 165 µM) | 50 (≈ 165 µM) | 25 (≈ 82.7 µM) |
| COc1cccc2c1CC[C@H]1C3=C(CC[C@]21C)C(=O)OC3 | 100 (≈ 352 µM) | 100 (≈ 352 µM) | 100 (≈ 352 µM) | 100 (≈ 352 µM) |
| COC(=O)[C@]1(C)CCC[C@]2(C)c3ccc(C(C)C)c(NC(=O)Cn4cc(COc5ccccc5)nn4)c3CC[C@@H]12 | 50 (≈ 91.8 µM) | 12.5 (≈ 22.9 µM) | 25 (≈ 45.9 µM) | 75 (≈ 138 µM) |
| CC(C)c1ccc2c(c1O)CC[C@H]1C3=C(CC[C@]21C)C(=O)OC3 [TRIPTOPHENOLIDE] | 75 (≈ 240 µM) | 50 (≈ 160 µM) | 100 (≈ 320 µM) | 75 (≈ 240 µM) |
| C=C1[C@@H]2CCc3c(ccc(C(C)C)c3OC)[C@@]2(C)CC[C@@]1(O)CO | 50 (≈ 151 µM) | 25 (≈ 75.7 µM) | 50 (≈ 151 µM) | 25 (≈ 75.7 µM) |
| CCn1cc(C(=O)O)c(=O)c2cc(F)c(N3CCNCC3)cc21 [NORFLOXACIN] | 1.6 (≈ 5.01 µM) | 1.6 (≈ 5.01 µM) | 3.1 (≈ 9.71 µM) | 1.6 (≈ 5.01 µM) |
| COC(=O)c1ccc(-c2cn(CC(=O)Nc3c(C(C)C)ccc4c3CC[C@H]3[C@](C)(C(=O)OC)CCC[C@]43C)nn2)cc1 | 12.5 (≈ 21.8 µM) | 12.5 (≈ 21.8 µM) | 6.3 (≈ 11 µM) | 25 (≈ 43.7 µM) |
| CCCCCOc1ccc(-c2cn(CC(=O)Nc3c(C(C)C)ccc4c3CC[C@H]3[C@](C)(C(=O)OC)CCC[C@]43C)nn2)cc1 | 100 (≈ 166 µM) | 75 (≈ 125 µM) | 75 (≈ 125 µM) | 75 (≈ 125 µM) |
| COC(=O)[C@]1(C)CCC[C@]2(C)c3ccc(C(C)C)c(NC(=O)Cn4cc(-c5ccccc5)nn4)c3CC[C@@H]12 | 50 (≈ 97.1 µM) | 25 (≈ 48.6 µM) | 25 (≈ 48.6 µM) | 50 (≈ 97.1 µM) |
| COC(=O)[C@]1(C)CCC[C@]2(C)c3ccc(C(C)C)c(O)c3CC[C@@H]12 | 50 (≈ 151 µM) | 75 (≈ 227 µM) | 50 (≈ 151 µM) | 25 (≈ 75.7 µM) |
| COC(=O)c1cn(CC(=O)Nc2c(C(C)C)ccc3c2CC[C@H]2[C@](C)(C(=O)OC)CCC[C@]32C)nn1 | 75 (≈ 151 µM) | 50 (≈ 101 µM) | 75 (≈ 151 µM) | 50 (≈ 101 µM) |
| COC(=O)[C@]1(C)CCC[C@]2(C)c3ccc(C(C)C)c(NC(=O)Cn4cc(-c5cccc(Br)c5)nn4)c3CC[C@@H]12 | 25 (≈ 42.1 µM) | 25 (≈ 42.1 µM) | 12.5 (≈ 21.1 µM) | 12.5 (≈ 21.1 µM) |
| COC(=O)[C@]1(C)CCC[C@@]2(C)[C@H]1CC=C1C(=O)[C@@](O)(C(C)C)CC[C@@H]12 | 75 (≈ 215 µM) | 100 (≈ 287 µM) | 75 (≈ 215 µM) | 100 (≈ 287 µM) |
| C=C1C(CO)=CC[C@]2(C)c3ccc(C(C)C)c(OC)c3CC[C@@H]12 | 75 (≈ 240 µM) | 100 (≈ 320 µM) | 100 (≈ 320 µM) | 75 (≈ 240 µM) |
| CCOCOC[C@]12CCC3=C(COC3=O)[C@@H]1CCc1c2ccc(C(C)C)c1OC | 100 (≈ 250 µM) | 100 (≈ 250 µM) | 100 (≈ 250 µM) | 100 (≈ 250 µM) |
| COC(=O)[C@]1(C)CCC[C@]2(C)c3ccc(C(C)C)c(NC(=O)Cn4cc(CCO)nn4)c3CC[C@@H]12 | 25 (≈ 51.8 µM) | 50 (≈ 104 µM) | 25 (≈ 51.8 µM) | 75 (≈ 155 µM) |
| C=C1[C@H](O[Si](C)(C)C(C)(C)C)CC[C@]2(C)c3ccccc3CC[C@@H]12 | 100 (≈ 292 µM) | 100 (≈ 292 µM) | 75 (≈ 219 µM) | 75 (≈ 219 µM) |
| COC(=O)[C@]1(C)CCC[C@]2(C)c3ccc(C(C)C)c(NC(=O)Cn4cc(-c5ccccn5)nn4)c3CC[C@@H]12 | 25 (≈ 48.5 µM) | 12.5 (≈ 24.2 µM) | 12.5 (≈ 24.2 µM) | 12.5 (≈ 24.2 µM) |
| COC(=O)[C@]1(C)CCC[C@]2(C)c3ccc(C(C)C)c(N)c3CC[C@@H]12 | 25 (≈ 75.9 µM) | 50 (≈ 152 µM) | 50 (≈ 152 µM) | 50 (≈ 152 µM) |
| COC(=O)[C@]1(C)CCC[C@]2(C)c3ccc(C(C)C)c(NC(=O)Cn4cc(CCC#N)nn4)c3CC[C@@H]12 | 50 (≈ 102 µM) | 75 (≈ 153 µM) | 50 (≈ 102 µM) | 50 (≈ 102 µM) |
| COC(=O)[C@]1(C)CCC[C@]2(C)c3ccc(C(C)C)c(NC(=O)Cn4cc(C5CC5)nn4)c3CC[C@@H]12 | 50 (≈ 104 µM) | 75 (≈ 157 µM) | 6.3 (≈ 13.2 µM) | 75 (≈ 157 µM) |
| COc1ccc(COC[C@H]2[C@H](O)CC[C@]3(C)c4cccc(OC)c4CC[C@@H]23)cc1 | 25 (≈ 63 µM) | 50 (≈ 126 µM) | 25 (≈ 63 µM) | 25 (≈ 63 µM) |
| COC(=O)[C@]1(C)CCC[C@@]2(C)[C@H]1CC=C1C=C(C(C)C)CC[C@@H]12 [METHYL ABIETATE] | 50 (≈ 158 µM) | 75 (≈ 237 µM) | 75 (≈ 237 µM) | 50 (≈ 158 µM) |
| COC(=O)[C@]1(C)CCC[C@@]2(C)[C@H]1CC=C1[C@@H]2CC[C@](O)(C(C)C)[C@H]1O | 75 (≈ 214 µM) | 75 (≈ 214 µM) | 100 (≈ 285 µM) | 75 (≈ 214 µM) |
